Reference: ChEMBL document CHEMBL3112480, “γ-Alkylidene-γ-lactones and isobutylpyrrol-2(5H)-ones analogues to rubrolides as inhibitors of biofilm formation by gram-positive and gram-negative bacteria” (Bioorg Med Chem Lett, 2014)
≈ marks a conversion by molar mass, not a printed value.

Assays:
Staphylococcus aureus [1] = test: Antibacterial activity against Staphylococcus aureus ATCC 25923 assessed as effect on planktonic growth at 0.34 ug/ml after 20 hrs relative to control; format: functional
[2] = system: Staphylococcus epidermidis; test: Antibacterial activity against Staphylococcus epidermidis ATCC 35547 assessed as effect on planktonic growth at 1.37 ug/ml after 20 hrs relative to control; format: functional
Staphylococcus aureus [3] = test: Antibacterial activity against Staphylococcus aureus ATCC 25923 assessed as effect on planktonic growth at 0.17 ug/ml after 20 hrs relative to control; format: functional
Pseudomonas aeruginosa [4] = test: Antibacterial activity against Pseudomonas aeruginosa ATCC 27853 assessed as effect on planktonic growth at 0.17 ug/ml after 20 hrs relative to control; format: functional
[5] = system: Staphylococcus epidermidis; test: Antibacterial activity against Staphylococcus epidermidis ATCC 35547 assessed as effect on planktonic growth at 2.73 ug/ml after 20 hrs relative to control; format: functional
Staphylococcus aureus [6] = test: Antibacterial activity against Staphylococcus aureus ATCC 25923 assessed as effect on planktonic growth at 21.9 ug/ml after 20 hrs relative to control; format: functional
[7] = system: Staphylococcus epidermidis; test: Antibacterial activity against Staphylococcus epidermidis ATCC 35547 assessed as effect on planktonic growth at 10.9 ug/ml after 20 hrs relative to control; format: functional
[8] = system: Staphylococcus epidermidis; test: Antibacterial activity against Staphylococcus epidermidis ATCC 35547 assessed as effect on planktonic growth at 21.9 ug/ml after 20 hrs relative to control; format: functional
Pseudomonas aeruginosa [9] = test: Antibacterial activity against Pseudomonas aeruginosa ATCC 27853 assessed as effect on planktonic growth at 5.5 ug/ml after 20 hrs relative to control; format: functional
Staphylococcus aureus [10] = test: Antibacterial activity against Staphylococcus aureus ATCC 25923 assessed as effect on planktonic growth at 2.73 ug/ml after 20 hrs relative to control; format: functional
[11] = system: Staphylococcus epidermidis; test: Antibacterial activity against Staphylococcus epidermidis ATCC 35547 assessed as effect on planktonic growth at 5.5 ug/ml after 20 hrs relative to control; format: functional
Streptococcus mutans [12] = test: Antibacterial activity against Streptococcus mutans ATCC 25175 assessed as effect on planktonic growth at 0.34 ug/ml after 20 hrs relative to control; format: functional
[13] = system: Staphylococcus epidermidis; test: Antibacterial activity against Staphylococcus epidermidis ATCC 35547 assessed as effect on planktonic growth at 0.68 ug/ml after 20 hrs relative to control; format: functional
Pseudomonas aeruginosa [14] = test: Antibacterial activity against Pseudomonas aeruginosa ATCC 27853 assessed as effect on planktonic growth at 87.5 ug/ml after 20 hrs relative to control; format: functional
Pseudomonas aeruginosa [15] = test: Antibacterial activity against Pseudomonas aeruginosa ATCC 27853 assessed as effect on planktonic growth at 0.34 ug/ml after 20 hrs relative to control; format: functional
Streptococcus mutans [16] = test: Antibacterial activity against Streptococcus mutans ATCC 25175 assessed as effect on planktonic growth at 5.5 ug/ml after 20 hrs relative to control; format: functional
Streptococcus mutans [17] = test: Antibacterial activity against Streptococcus mutans ATCC 25175 assessed as effect on planktonic growth at 21.9 ug/ml after 20 hrs relative to control; format: functional
Streptococcus mutans [18] = test: Antibacterial activity against Streptococcus mutans ATCC 25175 assessed as effect on planktonic growth at 0.68 ug/ml after 20 hrs relative to control; format: functional
[19] = system: Staphylococcus epidermidis; test: Antibacterial activity against Staphylococcus epidermidis ATCC 35547 assessed as effect on planktonic growth at 0.17 ug/ml after 20 hrs relative to control; format: functional
Streptococcus mutans [20] = test: Antibacterial activity against Streptococcus mutans ATCC 25175 assessed as effect on planktonic growth at 87.5 ug/ml after 20 hrs relative to control; format: functional
Streptococcus mutans [21] = test: Antibacterial activity against Streptococcus mutans ATCC 25175 assessed as effect on planktonic growth at 10.9 ug/ml after 20 hrs relative to control; format: functional
Streptococcus mutans [22] = test: Antibacterial activity against Streptococcus mutans ATCC 25175 assessed as effect on planktonic growth at 43.8 ug/ml after 20 hrs relative to control; format: functional
Staphylococcus aureus [23] = test: Antibacterial activity against Staphylococcus aureus ATCC 25923 assessed as effect on planktonic growth at 0.68 ug/ml after 20 hrs relative to control; format: functional
Staphylococcus aureus [24] = test: Antibacterial activity against Staphylococcus aureus ATCC 25923 assessed as effect on planktonic growth at 10.9 ug/ml after 20 hrs relative to control; format: functional
Staphylococcus aureus [25] = test: Antibacterial activity against Staphylococcus aureus ATCC 25923 assessed as effect on planktonic growth at 43.8 ug/ml after 20 hrs relative to control; format: functional
Streptococcus mutans [26] = test: Antibacterial activity against Streptococcus mutans ATCC 25175 assessed as effect on planktonic growth at 0.17 ug/ml after 20 hrs relative to control; format: functional
Staphylococcus aureus [27] = test: Antibacterial activity against Staphylococcus aureus ATCC 25923 assessed as effect on planktonic growth at 5.5 ug/ml after 20 hrs relative to control; format: functional
Pseudomonas aeruginosa [28] = test: Antibacterial activity against Pseudomonas aeruginosa ATCC 27853 assessed as effect on planktonic growth at 1.37 ug/ml after 20 hrs relative to control; format: functional
[29] = system: Staphylococcus epidermidis; test: Antibacterial activity against Staphylococcus epidermidis ATCC 35547 assessed as effect on planktonic growth at 87.5 ug/ml after 20 hrs relative to control; format: functional
Pseudomonas aeruginosa [30] = test: Antibacterial activity against Pseudomonas aeruginosa ATCC 27853 assessed as effect on planktonic growth at 10.9 ug/ml after 20 hrs relative to control; format: functional
Streptococcus mutans [31] = test: Antibacterial activity against Streptococcus mutans ATCC 25175 assessed as effect on planktonic growth at 1.37 ug/ml after 20 hrs relative to control; format: functional
Streptococcus mutans [32] = test: Antibacterial activity against Streptococcus mutans ATCC 25175 assessed as effect on planktonic growth at 2.73 ug/ml after 20 hrs relative to control; format: functional
Pseudomonas aeruginosa [33] = test: Antibacterial activity against Pseudomonas aeruginosa ATCC 27853 assessed as effect on planktonic growth at 21.9 ug/ml after 20 hrs relative to control; format: functional
Pseudomonas aeruginosa [34] = test: Antibacterial activity against Pseudomonas aeruginosa ATCC 27853 assessed as effect on planktonic growth at 0.68 ug/ml after 20 hrs relative to control; format: functional
Pseudomonas aeruginosa [35] = test: Antibacterial activity against Pseudomonas aeruginosa ATCC 27853 assessed as inhibition of biofilm formation after 20 hrs by crystal-violet staining method; format: functional, organism-based; conditions: for IC50: ATCC 27853, 20 h
[36] = system: Staphylococcus epidermidis; test: Antibacterial activity against Staphylococcus epidermidis ATCC 35547 assessed as effect on planktonic growth at 43.8 ug/ml after 20 hrs relative to control; format: functional
[37] = system: Staphylococcus epidermidis; test: Antibacterial activity against Staphylococcus epidermidis ATCC 35547 assessed as inhibition of biofilm formation after 20 hrs by crystal-violet staining method; format: functional, organism-based; conditions: for IC50: ATCC 35547, 20 h
Pseudomonas aeruginosa [38] = test: Antibacterial activity against Pseudomonas aeruginosa ATCC 27853 assessed as effect on planktonic growth at 43.8 ug/ml after 20 hrs relative to control; format: functional
Staphylococcus aureus [39] = test: Antibacterial activity against Staphylococcus aureus ATCC 25923 assessed as effect on planktonic growth at 1.37 ug/ml after 20 hrs relative to control; format: functional
Pseudomonas aeruginosa [40] = test: Antibacterial activity against Pseudomonas aeruginosa ATCC 27853 assessed as effect on planktonic growth at 2.73 ug/ml after 20 hrs relative to control; format: functional
[41] = system: Staphylococcus epidermidis; test: Antibacterial activity against Staphylococcus epidermidis ATCC 35547 assessed as effect on planktonic growth at 0.34 ug/ml after 20 hrs relative to control; format: functional
Staphylococcus aureus [42] = test: Antibacterial activity against Staphylococcus aureus ATCC 25923 assessed as effect on planktonic growth at 87.5 ug/ml after 20 hrs relative to control; format: functional

## COc1ccc(Br)cc1C1=C(Br)C(=O)O/C1=C\c1ccc(Br)cc1
Staphylococcus aureus [1]
  Activity: 0.5%
[2]
  Activity: -2.2%
Staphylococcus aureus [3]
  Activity: -1.6%
Pseudomonas aeruginosa [4]
  Activity: -1.8%
[5]
  Activity: 4.5%
Staphylococcus aureus [6]
  Activity: 23.1%
[7]
  Activity: -1.5%
[8]
  Activity: 3.9%
Pseudomonas aeruginosa [9]
  Activity: -22%
Staphylococcus aureus [10]
  Activity: 5.6%
[11]
  Activity: 1%
Streptococcus mutans [12]
  Activity: 3.8%
[13]
  Activity: -0.2%
Pseudomonas aeruginosa [14]
  Activity: -12.9%
Pseudomonas aeruginosa [15]
  Activity: -1.9%
Streptococcus mutans [16]
  Activity: 10.3%
Streptococcus mutans [17]
  Activity: 4%
Streptococcus mutans [18]
  Activity: 7%
[19]
  Activity: 8.1%
Streptococcus mutans [20]
  Activity: -13.5%
Streptococcus mutans [21]
  Activity: 7.2%
Streptococcus mutans [22]
  Activity: -11.3%
Staphylococcus aureus [23]
  Activity: 0.8%
Staphylococcus aureus [24]
  Activity: 15.8%
Staphylococcus aureus [25]
  Activity: 13.1%
Streptococcus mutans [26]
  Activity: 4.5%
Staphylococcus aureus [27]
  Activity: 8.3%
Pseudomonas aeruginosa [28]
  Activity: -8.6%
[29]
  Activity: 31.9%
Pseudomonas aeruginosa [30]
  Activity: -17.6%
Streptococcus mutans [31]
  Activity: 12.3%
Streptococcus mutans [32]
  Activity: 15%
Pseudomonas aeruginosa [33]
  Activity: -15.1%
Pseudomonas aeruginosa [34]
  Activity: -1.8%
Pseudomonas aeruginosa [35]
  inhibition: Dose-dependent effect
  IC50: > 87.5 µg/mL
[36]
  Activity: 22.1%
[37]
  inhibition: Dose-dependent effect
  IC50: 41.3 µg/mL (≈ 80.2 µM)
Pseudomonas aeruginosa [38]
  Activity: -12.1%
Staphylococcus aureus [39]
  Activity: 6.7%
Pseudomonas aeruginosa [40]
  Activity: -19.2%
[41]
  Activity: 0.6%
Staphylococcus aureus [42]
  Activity: 9.4%

## COc1ccc(Cl)cc1C1=C(Br)C(=O)N(CC(C)C)/C1=C/c1ccccc1Br
Staphylococcus aureus [1]
  Activity: -0.7%
[2]
  Activity: -0.4%
Staphylococcus aureus [3]
  Activity: 2.7%
Pseudomonas aeruginosa [4]
  Activity: -1.8%
[5]
  Activity: -3.7%
Staphylococcus aureus [6]
  Activity: -6.2%
[7]
  Activity: -0.4%
[8]
  Activity: 10.6%
Pseudomonas aeruginosa [9]
  Activity: -5.1%
Staphylococcus aureus [10]
  Activity: 7.5%
[11]
  Activity: 2.7%
Streptococcus mutans [12]
  Activity: -18.8%
[13]
  Activity: -2.2%
Pseudomonas aeruginosa [14]
  Activity: -9.1%
Pseudomonas aeruginosa [15]
  Activity: -3.9%
Streptococcus mutans [16]
  Activity: 1.8%
Streptococcus mutans [17]
  Activity: 7%
Streptococcus mutans [18]
  Activity: -13.4%
[19]
  Activity: 1.9%
Streptococcus mutans [20]
  Activity: 6.4%
Streptococcus mutans [21]
  Activity: -4.3%
Streptococcus mutans [22]
  Activity: 1.5%
Staphylococcus aureus [23]
  Activity: 3%
Staphylococcus aureus [24]
  Activity: -4.6%
Staphylococcus aureus [25]
  Activity: -4.3%
Streptococcus mutans [26]
  Activity: -19.5%
Staphylococcus aureus [27]
  Activity: 0.2%
Pseudomonas aeruginosa [28]
  Activity: -5.8%
[29]
  Activity: 31.5%
Pseudomonas aeruginosa [30]
  Activity: -18.1%
Streptococcus mutans [31]
  Activity: -8.2%
Streptococcus mutans [32]
  Activity: -3.3%
Pseudomonas aeruginosa [33]
  Activity: -14.6%
Pseudomonas aeruginosa [34]
  Activity: -7.5%
Pseudomonas aeruginosa [35]
  inhibition: Dose-dependent effect
  IC50: > 87.5 µg/mL
[36]
  Activity: 21.8%
[37]
  inhibition: Dose-dependent effect
  IC50: 33.2 µg/mL (≈ 63.2 µM)
Pseudomonas aeruginosa [38]
  Activity: -14.6%
Staphylococcus aureus [39]
  Activity: -2.5%
Pseudomonas aeruginosa [40]
  Activity: -5.8%
[41]
  Activity: 5.5%
Staphylococcus aureus [42]
  Activity: 3.6%
